This note sets out measurements from patent US20080223379A1, “METHODS AND COMPOSITIONS FOR THE TREATMENT OR PROPHYLAXIS OF TENDON AND LIGAMENT INJURY” (DOBAVET GmbH, priority 2007, published 2008).

This assay concerns tendon tissue damaged due to ruptured tendon fibrils and hematoma. Description: Oral calcium dobesilate therapy of tendon damage in horses, sonographic follow-up. The assay is classed as in vivo, horse. Particulars: adult horses; 1400 mg with the food twice a day (corresponding to 4 mg/kg body weight/day); four months; sonography after one, two and four months; horses walked. As for the experimental part: Calcium dobesilate was administered with the food in a dose of 1400 mg per adult horse, twice a day each (corresponding to 4 mg/kg body weight/day). The therapy is carried out for four months. Therapy progress is documented sonographically after one month, after two months and after four months. During therapy, the horses are walked.

For `O=S(=O)([O][Ca][O]S(=O)(=O)c1cc(O)ccc1O)c1cc(O)ccc1O` [Calcium dobesilate, calcium dobesilate], the “Sonographic therapy progression (structure and density of the tendon in the ultrasound image)” value is “the tendon sections hypoechogenic at the beginning of therapy show a physiological structure and density of the tendon in the ultrasound image at the end of therapy”.
